Consider 14 compounds from US20190169181A1, “FUMAGILLOL COMPOUNDS AND METHODS OF MAKING AND USING SAME” (Zafgen, Inc., priority 2016, published 2019).

pIC50: −log10 of the molar value. Structures can show the parent of a compound that is named as a salt. A value given as a limit tells only on which side of the number the result lay.

One experiment has as its target T1, recombinant human MetAP2 (Homo sapiens, UniProt P50579).
T1 construct: Flag; made in house
In words: Recombinant human MetAP2 enzyme inhibition assay (MAS peptide / amino acid oxidase / Amplex Ultrared readout). The following applies: Flag tagged human recombinant MetAP2, 25 minutes at 25° C. In kind it is biochemical. The method, then:
Compounds are tested for their capacity to inhibit recombinant human MetAP2 activity using the following assay.
Flag tagged Human recombinant MetAP2 expressed and isolated for use as the enzyme source. 10 mM stock solutions of compounds were prepared in 100% DMSO and further diluted in 100% DMSO required concentration to 1 mM stocks. The stock compound solutions and DMSO vehicle controls were diluted to target final compound concentrations using assay buffer to a final concentration of 50 mM HEPES containing 100 mM NaCl, pH adjusted to 7.5. The MAS peptide was formulated to a 7.5 mM stock in distilled water and prior to use further diluted 1:4. […] 40 μl of enzyme was mixed with 100 μl of MnCl2 then further diluted in assay buffer to a final concentration of 16 μg/ml. To test for compound effect on MetAP2 enzyme activity, 5 μl of test compound, 10 μl of MAS substrate/amino acid oxidase mixture, 10 μl of MetAP2 was added to test wells in a 384 well black plate with blank wells containing no enzyme, replaced with 10 μl of assay buffer. All compounds were tested in duplicate on two occasions on the same day.
The plate was sealed with a TopSeal A cover and mixed briefly on an orbital mixer at 900 rpm. The plate was incubated for a further 25 minutes at 25° C. A 5× stock of Amplex buffer was prepared (0.25 M sodium phosphate, pH 7.4) and stored at 4° C. […] Horse radish peroxidase was diluted in […] of Amplex buffer, 100 μl of this was combined with 50 μl of Amplex Ultrared in […] of 1× Amplex buffer to generate sufficient detection reagent for a 384 well plate. 25 μl detection reagent was added to each well of the test plate, which was re-sealed and mixed briefly on an orbital shaker. The plate was transferred to an Envision Multi-label reader and RFU measured corresponding to excitation 531 nm and emission 595 nm. At the end of the MetAP2 incubation 25 μl Amplex/HRP mixture per well was added and the plate read plate on a plate reader.

Experiment [1] has as its system Diet Induced Obese (DIO) C57BL/6 mice. The experiment can be described thus: 10 day DIO mouse model, weight loss vs. vehicle. In kind it is in vivo. To be noted: 240 h; for inhibition in vivo at 1 mg/kg: 1.0 mpk sc once a day for 10 days; for inhibition in vivo at 0.3 mg/kg: 0.3 mpk sc once a day for 10 days. An excerpt: The objective of this study design was to investigate the efficacy of disclosed compounds in a 10 day DIO mouse model. Effects on body weight, food intake, hematology and blood chemistry were the primary readouts of this study design. Male, Diet Induced Obese (DIO) C57BL/6 mice, 19-21 weeks of age (13-15 weeks on high fat diet) were ordered from a certified vendor and upon receipt were housed on irradiated corncob bedding in micro-isolator cages on a 12-hour light-dark cycle (0700-1900) at 68-74° F. and 30-70% humidity. Mice were fed Research Diets D12492 (60% Kcal fat, 20% Kcal carbohydrate and 20% protein) and provided water ad libitum. DIO mice were received and housed in the facility for approximately two weeks prior to the start of test article administration. On Day −4 or −3, mice were randomized into study groups based on body weight and body weights were continued to be recorded daily for the duration of the study. Daily food intake was assessed starting on Study Day −2 by weighing of the food with hopper together to avoid loss of food in transfer.
Compounds were formulated into a 100% DMSO stock (at 9 mg/mL) prior to the start, and further diluted into the target working concentration using the vehicle of 10% DMSO in water. Prior to test article administration, starting on Day −3 a dosing acclimation occurred with all animals receiving a subcutaneous injection of vehicle (10% DMSO) only for 3 days. Starting on Day 1, test compounds or vehicle were administered based on individual body weight, subcutaneously, once a day for 10 days. All mice were sacrificed on Day 11, 24 hours following the final dosing on Day 10. After sacrifice, whole blood was collected and analyzed for hematology and blood chemistry parameters.
Compounds were tested for weight loss vs. vehicle at 0.3 and 1.0 mpk sc (mg per kg animal weight delivered subcutaneously), and the results are shown in Table 2 below.

T1 sequence (P50579 whole entry): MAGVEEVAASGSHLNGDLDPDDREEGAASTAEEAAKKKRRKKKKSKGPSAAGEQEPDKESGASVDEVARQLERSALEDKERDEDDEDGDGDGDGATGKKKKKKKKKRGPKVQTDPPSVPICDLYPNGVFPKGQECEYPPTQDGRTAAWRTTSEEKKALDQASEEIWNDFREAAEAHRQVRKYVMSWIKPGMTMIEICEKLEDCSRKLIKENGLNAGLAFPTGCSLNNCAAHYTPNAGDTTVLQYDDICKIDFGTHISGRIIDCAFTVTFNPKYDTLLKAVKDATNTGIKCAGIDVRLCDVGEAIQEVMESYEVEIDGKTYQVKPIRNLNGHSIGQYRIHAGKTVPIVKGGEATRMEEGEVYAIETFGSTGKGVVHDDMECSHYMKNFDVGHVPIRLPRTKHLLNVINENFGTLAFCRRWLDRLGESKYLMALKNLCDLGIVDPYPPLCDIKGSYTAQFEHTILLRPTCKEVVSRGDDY

For the compound `CNc1nnc(C[C@@H](NC(=O)O[C@@H]2CC[C@]3(CO3)[C@@H]([C@@]3(C)O[C@@H]3CC=C(C)C)[C@@H]2OC)C(C)C)s1` [Example 35, (3R,4S,5S,6R)-5-methoxy-4-((2R,3R)-2-methyl-3-(3-methylbut-2-enyl)oxiran-2-yl)-1-oxaspiro[2.5]octan-6-yl (R)-3-methyl-1-(5-(methylamino)-1,3,4-thiadiazol-2-yl)butan-2-ylcarbamate], on recombinant human MetAP2, the pIC50 was 6.30 to 7.30. The inhibition in vivo at 1 mg/kg in experiment [1] stood at 1%.

Regarding `CO[C@@H]1[C@H](OC(=O)N[C@H](c2cc(=O)cc[nH]2)C(C)C)CC[C@]2(CO2)[C@H]1[C@@]1(C)O[C@@H]1CC=C(C)C` [Example 20, (3R,4S,5S,6R)-5-methoxy-4-((2R,3R)-2-methyl-3-(3-methylbut-2-enyl)oxiran-2-yl)-1-oxaspiro[2.5]octan-6-yl (S)-2-methyl-1-(4-oxo-1,4-dihydropyridin-2-yl)propylcarbamate], the pIC50 on recombinant human MetAP2 is > 7.30. Moreover, in experiment [1], the inhibition in vivo at 0.3 mg/kg worked out at 3.4% and the inhibition in vivo at 1 mg/kg was 3.3%.

Regarding `CO[C@@H]1[C@H](OC(=O)N[C@H](c2cnn(C[C@@H]3CCN(C)C3)c2)C(C)C)CC[C@]2(CO2)[C@H]1[C@@]1(C)O[C@@H]1CC=C(C)C` [Example 23, (3R,4S,5S,6R)-5-methoxy-4-((2R,3R)-2-methyl-3-(3-methylbut-2-enyl)oxiran-2-yl)-1-oxaspiro[2.5]octan-6-yl (S)-2-methyl-1-(1-(((R)-1-methylpyrrolidin-3-yl)methyl)-1H-pyrazol-4-yl)propylcarbamate], the pIC50 on recombinant human MetAP2 is 6.30 to 7.30. Further, the inhibition in vivo at 0.3 mg/kg in experiment [1] amounted to 5.1%.

Take `CO[C@@H]1[C@H](OC(=O)/C=C/c2ccc(OCCN(C)C)cc2)CC[C@]2(CO2)[C@H]1[C@@]1(C)O[C@@H]1CC=C(C)C` [A, [(3R,6R,7S,8S)-7-methoxy-8-[(2R,3R)-2-methyl-3-(3-methylbut-2-enyl)oxiran-2-yl]-2-oxaspiro[2.5]octan-6-yl] (E)-3-[4-[2-(dimethylamino)ethoxy]phenyl]prop-2-enoate, reference compound]: in experiment [1], the inhibition in vivo at 0.3 mg/kg is 20% and the inhibition in vivo at 1 mg/kg was 18%.

With `CNc1nnc([C@H](NC(=O)O[C@@H]2CC[C@]3(CO3)[C@@H]([C@@]3(C)O[C@@H]3CC=C(C)C)[C@@H]2OC)C(C)C)o1` [Example 3, (3R,5S,6R)-5-methoxy-4-((2R,3R)-2-methyl-3-(3-methylbut-2-enyl)oxiran-2-yl)-1-oxaspiro[2.5]octan-6-yl (R)-2-methyl-1-(5-(methylamino)-1,3,4-oxadiazol-2-yl)propylcarbamate], the pIC50 on recombinant human MetAP2 is 6.30 to 7.30. Moreover, in experiment [1], the inhibition in vivo at 0.3 mg/kg worked out at 1.1%.

For `CO[C@@H]1[C@H](OC(=O)N[C@H](c2cn(C[C@H]3CCN(CC(F)F)C3)cn2)C(C)C)CC[C@]2(CO2)[C@H]1[C@@]1(C)O[C@@H]1CC=C(C)C` [Example 18, (3R,4S,5S,6R)-5-methoxy-4-((2R,3R)-2-methyl-3-(3-methylbut-2-enyl)oxiran-2-yl)-1-oxaspiro[2.5]octan-6-yl (S)-1-(1-(((S)-1-(2,2-difluoroethyl)pyrrolidin-3-yl)methyl)-1H-imidazol-4-yl)-2-methylpropylcarbamate], the negative logarithm of the IC50 (pIC50) at recombinant human MetAP2 is 6.30 to 7.30. For the same compound, in experiment [1], the inhibition in vivo at 0.3 mg/kg is -0.4%.

As for `CO[C@@H]1[C@H](OC(=O)N[C@H](c2ncc[nH]2)C(C)C)CC[C@]2(CO2)[C@H]1[C@@]1(C)O[C@@H]1CC=C(C)C` [Example 4, (3R,4S,5S,6R)-5-methoxy-4-((2R,3R)-2-methyl-3-(3-methylbut-2-enyl)oxiran-2-yl)-1-oxaspiro[2.5]octan-6-yl (S)-1-(1H-imidazol-2-yl)-2-methylpropylcarbamate], on recombinant human MetAP2, the pIC50 was > 7.30. Also, in experiment [1], the inhibition in vivo at 0.3 mg/kg amounted to 3.9% and the inhibition in vivo at 1 mg/kg worked out at 0.7%.

With `CO[C@@H]1[C@H](OC(=O)N[C@H](c2noc(=O)[nH]2)C(C)C)CC[C@]2(CO2)[C@H]1[C@@]1(C)O[C@@H]1CC=C(C)C` [Example 10, (3R,4S,5S,6R)-5-methoxy-4-((2R,3R)-2-methyl-3-(3-methylbut-2-enyl)oxiran-2-yl)-1-oxaspiro[2.5]octan-6-yl (S)-2-methyl-1-(5-oxo-4,5-dihydro-1,2,4-oxadiazol-3-yl)propylcarbamate], the pIC50 on recombinant human MetAP2 was 6.30 to 7.30. In experiment [1], the inhibition in vivo at 0.3 mg/kg is 4.1% and the inhibition in vivo at 1 mg/kg turned out to be 2.9%.

On to `CO[C@@H]1[C@H](OC(=O)N[C@H](c2nccn2C[C@H]2CCCN2C)C(C)C)CC[C@]2(CO2)[C@H]1[C@@]1(C)O[C@@H]1CC=C(C)C` [Example 5, (3R,4S,5S,6R)-5-methoxy-4-((2R,3R)-2-methyl-3-(3-methylbut-2-enyl)oxiran-2-yl)-1-oxaspiro[2.5]octan-6-yl (S)-2-methyl-1-(1-(((R)-1-methylpyrrolidin-2-yl)methyl)-1H-imidazol-2-yl)propylcarbamate formate], for which the pIC50 on recombinant human MetAP2 is 6.30 to 7.30. Moreover, the inhibition in vivo at 0.3 mg/kg in experiment [1] worked out at 3.1%.

With `CC[C@@H](Cc1noc(=O)[nH]1)NC(=O)O[C@@H]1CC[C@]2(CO2)[C@@H]([C@@]2(C)O[C@@H]2CC=C(C)C)[C@@H]1OC` [Example 29, (3R,4S,5S,6R)-5-methoxy-4-((2R,3R)-2-methyl-3-(3-methylbut-2-enyl)oxiran-2-yl)-1-oxaspiro[2.5]octan-6-yl (S)-1-(5-oxo-4,5-dihydro-1,2,4-oxadiazol-3-yl)butan-2-ylcarbamate], the pIC50 on recombinant human MetAP2 was > 7.30. Moreover, the inhibition in vivo at 1 mg/kg in experiment [1] stood at 3.6%.

As to `CO[C@@H]1[C@H](OC(=O)N[C@H](c2ccc(N3CC(F)(F)C3)nc2)C(C)C)CC[C@]2(CO2)[C@H]1[C@@]1(C)O[C@@H]1CC=C(C)C` [Example 25, (3R,4S,5S,6R)-5-methoxy-4-((2R,3R)-2-methyl-3-(3-methylbut-2-enyl)oxiran-2-yl)-1-oxaspiro[2.5]octan-6-yl (S)-1-(6-(3,3-difluoroazetidin-1-yl)pyridin-3-yl)-2-methylpropylcarbamate], the pIC50 at recombinant human MetAP2 was 6.30 to 7.30. The inhibition in vivo at 0.3 mg/kg in experiment [1] is 13%.

Regarding `CNc1nnc(C[C@@H](NC(=O)O[C@@H]2CC[C@]3(CO3)[C@@H]([C@@]3(C)O[C@@H]3CC=C(C)C)[C@@H]2OC)C(C)C)o1` [Example 33, (3R,4S,5S,6R)-5-methoxy-4-((2R,3R)-2-methyl-3-(3-methylbut-2-enyl)oxiran-2-yl)-1-oxaspiro[2.5]octan-6-yl (R)-3-methyl-1-(5-(methylamino)-1,3,4-oxadiazol-2-yl)butan-2-ylcarbamate], the pIC50 on recombinant human MetAP2 is 6.30 to 7.30. Also, in experiment [1], the inhibition in vivo at 0.3 mg/kg worked out at 3.7% and the inhibition in vivo at 1 mg/kg worked out at 1%.

`CO[C@@H]1[C@H](OC(=O)N[C@@H](c2noc(=O)[nH]2)C(C)C)CC[C@]2(CO2)[C@H]1[C@@]1(C)O[C@@H]1CC=C(C)C` [Example 11, (3R,4S,5S,6R)-5-methoxy-4-((2R,3R)-2-methyl-3-(3-methylbut-2-enyl)oxiran-2-yl)-1-oxaspiro[2.5]octan-6-yl (R)-2-methyl-1-(5-oxo-4,5-dihydro-1,2,4-oxadiazol-3-yl)propylcarbamate]: the pIC50 on recombinant human MetAP2 is 6.30 to 7.30. Also, in experiment [1], the inhibition in vivo at 0.3 mg/kg was -1.3% and the inhibition in vivo at 1 mg/kg worked out at 6.6%.

Turning to `CO[C@@H]1[C@H](OC(=O)N[C@H](c2c[nH]nn2)C(C)C)CC[C@]2(CO2)[C@H]1[C@@]1(C)O[C@@H]1CC=C(C)C` [Example 21, (3R,4S,5S,6R)-5-methoxy-4-((2R,3R)-2-methyl-3-(3-methylbut-2-enyl)oxiran-2-yl)-1-oxaspiro[2.5]octan-6-yl (S)-2-methyl-1-(1H-1,2,3-triazol-4-yl)propylcarbamate], the pIC50 at recombinant human MetAP2 was > 7.30.

One may read the pIC50 as the negative decadic logarithm of the IC50, by convention in mol/L. As a reminder, the inhibition in vivo is the drop in the measured response relative to a control, in per cent.
